Among the data in patent US9656978B2, “Acylpiperazines as inhibitors of transglutaminase and their use in medicine” (ASTON UNIVERSITY, priority 2012, dated 2017) are melting point and IC50 values, retold here.

Where only a bound is given, the exact number is not on record here.

In series [1] the target is T1, purified recombinant human TG2 (tissue transglutaminase) (Homo sapiens, UniProt P21980).
T1 construct: purchased Zedira, Germany
T1 sequence (P21980 1-687): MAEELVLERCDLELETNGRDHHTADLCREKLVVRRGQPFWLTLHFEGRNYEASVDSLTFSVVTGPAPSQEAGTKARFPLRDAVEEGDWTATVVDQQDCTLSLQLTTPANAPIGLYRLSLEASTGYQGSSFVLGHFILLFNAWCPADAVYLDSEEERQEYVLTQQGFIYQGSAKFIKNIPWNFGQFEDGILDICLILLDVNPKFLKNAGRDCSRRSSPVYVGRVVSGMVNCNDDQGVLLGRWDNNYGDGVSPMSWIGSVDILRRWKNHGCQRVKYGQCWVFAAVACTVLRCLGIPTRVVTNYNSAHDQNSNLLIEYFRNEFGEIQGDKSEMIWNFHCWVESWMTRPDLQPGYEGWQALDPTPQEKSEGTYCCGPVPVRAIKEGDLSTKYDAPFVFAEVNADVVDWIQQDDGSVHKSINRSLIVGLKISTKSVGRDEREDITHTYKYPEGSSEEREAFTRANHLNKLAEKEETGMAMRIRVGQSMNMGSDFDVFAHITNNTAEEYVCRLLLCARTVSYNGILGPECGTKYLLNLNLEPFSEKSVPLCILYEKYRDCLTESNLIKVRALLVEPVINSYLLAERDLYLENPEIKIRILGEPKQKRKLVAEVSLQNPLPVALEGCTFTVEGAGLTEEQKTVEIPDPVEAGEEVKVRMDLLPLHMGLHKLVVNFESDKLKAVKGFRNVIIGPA
In words: TG2 transamidation activity, biotin X-cadaverine incorporation into N,N′-dimethylcasein (Example 2). The format is biochemical. The settings on record: recombinant human TG2 400 ng/ml, 2 h at 37° C. How it is done: TG transamidation activity and the affect of inhibitors on activity was measured by biotin X-cadaverine incorporation into N,N′-dimethylcasein. After coating 96 well plates with 100 μl of 10 mg/ml N,N′-dimethylcasein in 50 mM Tris-Cl, pH8 at 4° C. over night, plates were washed with TBS-0.05% Tween-20(v/v), pH 7.6 and TBS, pH 7.6, and 100 μl purified recombinant human TG2 (400 ng/ml Zedira, Germany) (tissue transglutaminase) in 50 mM Tris-HCl, pH7.4, containing 1 mM DTT, 10 mM CaCl2 and 0.1 μM biotin-cadaverine added into the coated wells containing the appropriate concentration of inhibitor. The reaction was allowed to proceed for 2 h at 37° C. The plate was then washed twice with TBS-Tween-20 (v/v), pH 7.6 and once with TBS, pH 7.6 before being blocked with 100 μl of blocking buffer (3% (w/v) BSA in TBS-Tween, pH 7.6) for 30 min at 37° C. After blocking, the wells were incubated with 100 μl HRP-conjugated Extr-Avidin peroxidase (Sigma-Aldrich, UK) in blocking buffer (1:1,000 dilution) for 1 h at 37° C. After another set of washes, TG2 activity was measured using Sigma Fast OPD, tablets dissolved in 20 ml of distilled H2O. The colour was developed by adding 2.5 M H2SO4 and the absorbance at 490 nm measured using a microplate reader ELx808™. All inhibitors were dissolved in DMSO as a 100 mM solution prior to addition to the assay.

Series [2] concerns the target T2, Factor X111a (Homo sapiens, UniProt P00488).
T2 sequence (P00488 39-732 limits assumed): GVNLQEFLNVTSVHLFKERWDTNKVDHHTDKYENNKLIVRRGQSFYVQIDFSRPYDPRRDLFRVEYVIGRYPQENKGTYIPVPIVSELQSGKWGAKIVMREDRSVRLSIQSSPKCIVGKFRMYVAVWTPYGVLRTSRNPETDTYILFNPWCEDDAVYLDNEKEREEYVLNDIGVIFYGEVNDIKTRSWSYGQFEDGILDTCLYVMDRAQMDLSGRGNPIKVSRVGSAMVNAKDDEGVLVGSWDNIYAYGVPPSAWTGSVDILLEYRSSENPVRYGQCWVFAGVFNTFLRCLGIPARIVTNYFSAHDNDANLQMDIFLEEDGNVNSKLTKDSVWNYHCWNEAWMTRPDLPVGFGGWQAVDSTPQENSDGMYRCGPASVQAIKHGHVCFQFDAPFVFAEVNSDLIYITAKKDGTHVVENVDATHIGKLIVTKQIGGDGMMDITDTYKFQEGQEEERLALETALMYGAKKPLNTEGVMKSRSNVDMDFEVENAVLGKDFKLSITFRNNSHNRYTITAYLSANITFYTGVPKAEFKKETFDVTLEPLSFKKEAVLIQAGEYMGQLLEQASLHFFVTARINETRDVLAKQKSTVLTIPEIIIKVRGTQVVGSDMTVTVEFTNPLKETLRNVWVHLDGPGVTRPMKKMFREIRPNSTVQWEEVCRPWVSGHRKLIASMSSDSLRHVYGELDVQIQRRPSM
In words: TG-CovTest commercial microassay, Factor X111a. The settings on record: read-out: Estimated IC50 FXIII. The series is classed as biochemical. The text has this:
(§1) For determination of the activity of transglutaminase 1,transglutaminase 3 and Factor X111a, a commercial microassay was used, TG-CovTest (Covalab, Lyon, France; see also Perez et al. Anal Biochem. 2009; 389:150-156).

The target in series [3] is T3, transglutaminase 1 (Homo sapiens, UniProt P22735).
T3 sequence (P22735 1-817): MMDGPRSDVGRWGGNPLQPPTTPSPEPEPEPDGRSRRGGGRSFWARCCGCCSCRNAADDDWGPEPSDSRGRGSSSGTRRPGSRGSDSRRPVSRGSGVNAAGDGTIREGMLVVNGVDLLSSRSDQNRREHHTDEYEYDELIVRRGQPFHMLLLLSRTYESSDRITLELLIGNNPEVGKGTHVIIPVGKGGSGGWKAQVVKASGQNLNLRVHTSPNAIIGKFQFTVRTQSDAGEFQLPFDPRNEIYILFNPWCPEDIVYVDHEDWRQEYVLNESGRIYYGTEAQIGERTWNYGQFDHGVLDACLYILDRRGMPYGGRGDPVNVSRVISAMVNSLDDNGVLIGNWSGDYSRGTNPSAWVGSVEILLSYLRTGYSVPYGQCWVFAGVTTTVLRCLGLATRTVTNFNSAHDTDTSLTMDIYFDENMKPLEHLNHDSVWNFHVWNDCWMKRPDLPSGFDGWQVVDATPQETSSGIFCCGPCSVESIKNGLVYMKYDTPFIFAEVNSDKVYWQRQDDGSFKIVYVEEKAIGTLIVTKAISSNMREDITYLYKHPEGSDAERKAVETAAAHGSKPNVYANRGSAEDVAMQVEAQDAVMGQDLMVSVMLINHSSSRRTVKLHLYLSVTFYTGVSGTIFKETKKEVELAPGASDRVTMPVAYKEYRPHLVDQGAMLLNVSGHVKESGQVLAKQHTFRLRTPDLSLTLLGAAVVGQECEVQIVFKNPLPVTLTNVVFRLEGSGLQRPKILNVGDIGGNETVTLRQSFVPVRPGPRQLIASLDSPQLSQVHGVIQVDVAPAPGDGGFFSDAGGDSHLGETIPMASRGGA
In words: TG-CovTest commercial microassay, transglutaminase 1. The format is biochemical. The settings on record: read-out: Estimated IC50 TG1.
Source text: as §1

Series [4] addresses T4, transglutaminase 3 (Homo sapiens, UniProt Q08188).
T4 sequence (Q08188 1-693): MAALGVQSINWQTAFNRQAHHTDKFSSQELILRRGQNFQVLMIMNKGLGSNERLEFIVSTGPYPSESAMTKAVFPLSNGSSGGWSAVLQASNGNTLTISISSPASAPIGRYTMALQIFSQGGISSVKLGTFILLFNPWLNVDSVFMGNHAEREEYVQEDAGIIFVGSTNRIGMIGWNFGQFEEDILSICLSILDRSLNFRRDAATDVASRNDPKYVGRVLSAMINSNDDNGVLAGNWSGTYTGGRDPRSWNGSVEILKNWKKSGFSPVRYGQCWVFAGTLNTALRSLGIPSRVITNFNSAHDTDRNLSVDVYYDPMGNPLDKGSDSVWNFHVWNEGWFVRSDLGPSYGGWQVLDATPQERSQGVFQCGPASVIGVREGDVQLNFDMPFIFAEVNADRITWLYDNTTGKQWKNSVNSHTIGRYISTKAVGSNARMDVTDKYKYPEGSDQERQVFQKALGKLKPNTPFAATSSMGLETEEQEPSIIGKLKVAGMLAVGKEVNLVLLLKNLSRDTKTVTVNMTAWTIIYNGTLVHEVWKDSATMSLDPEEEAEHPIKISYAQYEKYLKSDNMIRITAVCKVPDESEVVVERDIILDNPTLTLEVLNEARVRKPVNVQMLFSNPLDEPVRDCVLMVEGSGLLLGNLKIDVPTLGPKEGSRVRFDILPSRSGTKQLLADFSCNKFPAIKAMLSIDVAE
In words: TG-CovTest commercial microassay, transglutaminase 3. The series is classed as biochemical. The settings on record: read-out: Estimated IC50 TG3.
Source text: as §1

For orientation: melting point means the temperature of the solid-liquid transition. Broadly, the IC50 is the concentration needed to halve the response being measured.

Turning to `COC(=O)c1ccc2cc(COC(=O)N3CCN(C(=O)CNC(=O)C[S+](C)C)CC3)ccc2c1.[Br-]`, the melting point fell in the range of 125 to 126 °C.

In turn, `CN(C)c1cccc2c(S(=O)(=O)N3CCN(C(=O)CNC(=O)C[S+](C)C)CC3)cccc12.[Br-]` came in with a melting point of 98 to 99 °C.

Molecule `C=CS(=O)(=O)NCC(=O)N1CCN(C(=O)OCc2ccccc2)CC1` [Compound 8a, benzyl 4-[2-(vinylsulfonylamino)acetyl]piperazine-1-carboxylate] came in with a melting point of 66 to 67 °C.

For the molecule `C=CS(=O)(=O)NCC(=O)N1CCN(C(=O)C23CC4CC(CC(C4)C2)C3)CC1` [Compound 8e, N-[2-[4-(adamantane-1-carbonyl)piperazin-1-yl]-2-oxo-ethyl]ethenesulfonamide], the melting point lay in the range of 159 to 160 °C.

Take `O=C(CBr)NCC(=O)N1CCN(C(=O)OCc2ccccc2)CC1` [EB 1-32]: in series [1], the IC50 was 0.75 ± 0.07 µM.

On to `C[S+](C)CC(=O)NCC(=O)N1CCN(C(=O)OCc2ccccc2)CC1` [EB 1-33], for which the IC50 in series [2] was greater than 100 µM.

Take `CC(C)(C)OC(=O)N1CCN(C(=O)CNC(=O)CBr)CC1` [EB 1-37]: the IC50 in series [1] was 0.008 ± 0.003 µM.

In the case of `CC(=O)NCC(=O)N1CCN(C(=O)OCc2ccccc2)CC1` [EB 1-44], in series [1], the IC50 came out at 4.25 ± 0.78 µM.

For `Cc1c(C)[n+](C)c(SCC(=O)NCC(=O)N2CCN(C(=O)OC(C)(C)C)CC2)n1C` [EB 1-45], the IC50 in series [1] came out at 400 µM.

Consider `C[S+](C)CC(=O)NCC(=O)N1CCN(C(=O)OC(C)(C)C)CC1` [EB 1-46], for which the IC50 is greater than 100 µM in series [2] and 0.07 ± 0.007 µM in series [1].

Take `C=CC(=O)NCC(=O)N1CCN(C(=O)OCc2ccc3ccccc3c2)CC1` [EB 1-81]: in series [2], the IC50 was greater than 100 µM.

Consider `C[S+](C)CC(=O)NCC(=O)N1CCN(C(=O)OCc2ccc3ccccc3c2)CC1` [EB 1-91], for which the IC50 in series [2] was greater than 100 µM.

As for `C[C@@H](NC(=O)CBr)C(=O)N1CCN(C(=O)OCc2ccccc2)CC1` [EB 1-100], the IC50 in series [1] amounted to 0.066 ± 0.001 µM.

`C[C@H](NC(=O)CBr)C(=O)N1CCN(C(=O)OCc2ccccc2)CC1` [EB 1-101]: the IC50 in series [1] came to 0.048 ± 0.006 µM.

Regarding `C=CC(=O)NCC(=O)N1CCN(C(=O)OCc2ccc3cc(C(=O)OC)ccc3c2)CC1` [EB 1-136], the IC50 in series [2] was greater than 100 µM.

Regarding `COC(=O)c1ccc2cc(COC(=O)N3CCN(C(=O)CNC(=O)CBr)CC3)ccc2c1` [EB 1-137], in series [2], the IC50 was less than 100 µM.

Take `C=CC(=O)NCC(=O)N1CCN(S(=O)(=O)c2cccc3c(N(C)C)cccc23)CC1` [EB 1-155]: the IC50 in series [2] was greater than 100 µM; in series [3], 5 µM; in series [4], greater than 100 µM; in series [1], 0.0061 ± 0.00042 µM.

Regarding `CC[S+](CC)CC(=O)NCC(=O)N1CCN(S(=O)(=O)c2cccc3c(N(C)C)cccc23)CC1` [EB 1-159], the IC50 in series [2], in series [3] and in series [4] was greater than 100 µM throughout.

As to `O=C(CBr)NCC(=O)N1CCN(C(=O)OCC23CC4CC(CC(C4)C2)C3)CC1` [EB 1-176], the IC50 in series [2] is greater than 100 µM; in series [3], 2 µM; in series [4] it was 25 µM; in series [1], less than 1 µM.

Take `O=C(CBr)NCC(=O)N1CCN(C(=O)OCCC23CC4CC(CC(C4)C2)C3)CC1` [EB 1-177]: the figures for the IC50 in series [2] and in series [1] were greater than 100 µM and 0.0063 ± 0.00049 µM, respectively.

Turning to `C[S+](C)CC(=O)NCC(=O)N1CCN(C(=O)OCC23CC4CC(CC(C4)C2)C3)CC1` [EB 1-178], in series [2], the IC50 is greater than 100 µM.

Take `C=CC(=O)NCC(=O)N1CCN(C(=O)OCCC23CC4CC(CC(C4)C2)C3)CC1` [EB 1-181]: the IC50 in series [2] is greater than 100 µM.

`C=CC(=O)NCC(=O)N1CCN(C(=O)C23CC4CC(CC(C4)C2)C3)CC1` [EB 2-16]: the IC50 in series [2] was 30 µM; in series [3], 2 µM.

Consider `O=C(CBr)NCC(=O)N1CCN(C(=O)C23CC4CC(CC(C4)C2)C3)CC1` [EB 2-17], for which, in series [2], the IC50 is less than 100 µM.

Turning to `C[S+](C)CC(=O)NCC(=O)N1CCN(C(=O)C23CC4CC(CC(C4)C2)C3)CC1` [EB 2-18], the IC50 in series [2] is greater than 100 µM.

Regarding `CN(C)c1cccc2c(S(=O)(=O)N3CCN(C(=O)CNC(=O)CCl)CC3)cccc12` [EB 2-57], the IC50 in series [1] worked out at 0.0059 ± 0.00014 µM.
